Values quoted from earlier work, collected in publication PMC9600270 (Cancers, 2022).
Where “and” joins values, the source holds several entries; their conditions need not be identical. Equal entries are not always repeated. Bridges are numbered along the chain shown (N, C = ends). Where no end group is shown, it is not given here.

Key:
RMS mouse xenografts = test system: RMS mouse xenografts; design: method as in PMID 28447920; conditions: TmR-targeted vincristine-loaded liposomes
RMS cells = conditions: TmR-targeted vincristine-loaded liposomes
Description: We previously selected RMS-targeting peptides by in vitro and in vivo phage display and tested them for their potential to increase vincristine-loaded liposomes’ accumulation in RMS mouse xenografts. […] We hypothesized that a targeting peptide with a stronger binding to RMS might be needed to achieve increased accumulation in RMS tumors in vivo. Here, we selected from the literature peptides binding to receptors k ... || We previously tested the peptide TmR for its potential to increase vincristine-loaded liposomes’ accumulation in RMS mouse xenografts. […] Here, we aimed at selecting a peptide with stronger binding to RMS cells than TmR, and F3 peptide bound to the four RMS cell lines tested 3- to 5-fold more than TmR peptide. Importantly, F3 pe ...

## KRDRGGGCMGTINTRTRRC (disulfide 8-19 (inferred)) [TmR, Furin-targeting RMS peptide, modified version of RMS-P3]
RMS mouse xenografts
  Tumor accumulation in vivo compared to non-targeted liposomes: did not further increase
RMS cells
  Increase of RMS binding of liposomes in vitro: 5.4 fold and 5 fold
